From article PMC11111408, “Concurrent inhibition of oncogenic and wild-type RAS-GTP for cancer therapy” (Nature, 2024)
Where “and” joins values, the source holds several entries; their conditions need not be identical. Equal values may be shown once. Read-outs that look alike come from different tables or passages of the source. Blank lines part the entries; values can stand above or below the molecule they belong to.

Columns and labels:
CYPA = molecular target: T1, CYPA (Homo sapiens, UniProt P62937); experiment: CYPA binding affinity (Kd1), SPR; details: steady state, (95% CI)
T1 construct: His6-TEV-AviTag-CYPA (full-length); His6-TEV (N); made in house; host or cells: BL21(DE3) Escherichia coli
Method: The binding affinity of compounds for CYPA (Kd1) was assessed by SPR on a Biacore 8K instrument as previously described.

[1] = Oral bioavailability in mice (LC-MS/MS of blood); assay type: in vivo; details: mouse, whole blood, read-out: Oral Bioavailability m%F
Capan-1 cells [2] = experiment: Cell proliferation (CTG); assay type: cell-based; details: Homo sapiens; Capan-1, CTG; (95% CI)
Method: (§1) Alternatively, cells were seeded in round-bottom ultra-low attachment 96-well plates, centrifuged at 1,000 rpm for 10 min to pellet the cells, and incubated overnight or up to 72 h to allow for 3D spheroid formation. […] Cell viability was determined by CellTiter-Glo 2.0 reagent (2D CTG) (Promega, G9243) or 3D CellTiter-Glo reagent (3D CTG) (Promega, G9683) according to the manufacturer’s protocols. Luminescence was detected using a SpectraMax M5 Plate Reader (Molecular Devices) of Perkin Elmer Enspire. Luminescence signal was normalized to vehicle-treated wells (normalized signal (%) = (luminescence (treated)/mean luminescence (vehicle)) × 100%). […] Data were plotted as log [inhibitor (M)], and a four-parameter sigmoidal concentration response model was fitted to the data to calculate EC50. […] Pa16C MEK1 mutant cells were evaluated by live-cell counting using Calcein AM and a SpectraMax i3X multi-mode detection platform (Molecular Devices). Growth percentages were calculated by normalizing the treated cell counts to their respective untreated cell counts.

A375 cells [3] = experiment: Cellular ERK phosphorylation (pERK); assay type: cell-based, human; details: Homo sapiens, A-375; A375 (BRAF^V600E)
A375 cells [4] = experiment: Cell proliferation (CTG); assay type: cell-based, human; details: Homo sapiens, A-375; A375, CTG; (95% CI)
Method: as §1

Capan-1 cells [5] = experiment: Cellular ERK phosphorylation (pERK); assay type: cell-based; details: Homo sapiens; Capan-1 (KRAS^G12V PDAC); (95% CI)
KRAS^G12V = KRAS^G12V (Homo sapiens, UniProt P01116+P62937, G12V); experiment: RAS binding affinity of compound-bound CYPA (Kd2), SPR; set-up: His6-TEV (N); made in house; host or cells: BL21(DE3) Escherichia coli; details: steady state, (95% CI)
[6] = test system: NCI-H441, HPAC and SW620 CDX models; experiment: CDX models, RMC-7977 versus SHP2 and MEK inhibitors; details: three KRAS^G12X models; RMC-7977 10 mg kg^−1 once daily, RMC-4550 20 mg kg^−1 every 2 days, cobimetinib 2.5 mg kg^−1 once daily, alone or in combination
[7] = test system: Pa16C cells expressing MEK1 mutants; experiment: Proliferation (Calcein AM) of Pa16C cells expressing MEK1 mutants; assay type: cell-based, human
[8] = test system: AsPC-1 and NCI-H441 cells; experiment: pERK (MSD) and proliferation (CTG) in AsPC-1 and NCI-H441 cells, CYPA inhibitor co-treatment or PPIA KO; assay type: cell-based, human; details: for activity at 0.00046 µM: 0.46 nM
RAS-less MEFs = experiment: Western blots of isogenic RAS-less MEF cells expressing KRAS variants or BRAF(V600E); assay type: cell-based, mouse; details: 24 h, western blot

Kd (CYPA): 330 nM
bioavailability [1]: 0.4%
EC50 (A375 cells [3]): > 10000 nM
EC50 (A375 cells [4]): > 10000 nM
EC50 (Capan-1 cells [5]): 31.6 nM
Structure (SMILES): CCn1c(-c2cccnc2[C@H](C)OC)c2c3cc(ccc31)-c1csc(n1)C[C@H](NC(=O)[C@H](C(C)C)N(C)C(C)=O)C(=O)N1CCC[C@H](N1)C(=O)OCC(C)(C)C2 [Compound 2]
EC50 (Capan-1 cells [2]): 149 nM

Kd (CYPA): 6270 nM
bioavailability [1]: 44%
EC50 (A375 cells [3]): > 10000 nM
EC50 (A375 cells [4]): > 10000 nM
EC50 (Capan-1 cells [5]): 124 nM
Kd (KRAS^G12V): 818 nM
Structure (SMILES): CCn1c(-c2cccnc2[C@H](C)OC)c2c3cc(ccc31)-c1csc(n1)C[C@H](NC(=O)[C@H]1CCO1)C(=O)N1CCC[C@H](N1)C(=O)OCC(C)(C)C2 [Compound 3]
EC50 (Capan-1 cells [2]): 615 nM

Kd (CYPA): 605 nM
EC50 (A375 cells [3]): > 10000 nM
EC50 (A375 cells [4]): 6950 nM
EC50 (Capan-1 cells [5]): 1.94 nM
Kd (KRAS^G12V): 292 nM
Structure (SMILES): CCn1c(-c2cc(N3CCN(C)CC3)cnc2[C@H](C)OC)c2c3cc(ccc31)-c1csc(n1)C[C@H](NC(=O)[C@H]1CCO1)C(=O)N1CCC[C@H](N1)C(=O)OCC(C)(C)C2 [Compound 4]
EC50 (Capan-1 cells [2]): 14.2 nM

Structure (SMILES): Cc1nc(N2CCC3(CC2)CO[C@@H](C)[C@H]3N)c(CO)nc1-c1cccc(Cl)c1Cl [RMC-4550]
anti-tumour activity [6]: only modest tumour growth inhibition

Structure (SMILES): O=C(Nc1ccc2[nH]nc(-c3ccncc3)c2c1)[C@@H]1CCN(CC(=O)N2CCN(c3ccc(-c4ncccn4)cc3)CC2)C1 [SCH772984]
Proliferation of Pa16C cells expressing MEK1 mutant constructs ([7]; MEK1E102-I103del, inhibitor 0.046 nM): 102.4 and 93.7 and 111.1 and 109.2
Proliferation of Pa16C cells expressing MEK1 mutant constructs ([7]; MEK1E102-I103del, inhibitor 0.412 nM): 88.7 and 97.2 and 116.5 and 112.2
Proliferation of Pa16C cells expressing MEK1 mutant constructs ([7]; MEK1E102-I103del, inhibitor 1.235 nM): 62.5 and 77.2 and 97.3 and 86.7
Proliferation of Pa16C cells expressing MEK1 mutant constructs ([7]; MEK1K57N, inhibitor 0.046 nM): 116 and 117.1 and 131.7 and 130.6
Proliferation of Pa16C cells expressing MEK1 mutant constructs ([7]; MEK1K57N, inhibitor 0.412 nM): 139 and 146.7 and 118.9 and 144.8
Proliferation of Pa16C cells expressing MEK1 mutant constructs ([7]; MEK1K57N, inhibitor 1.235 nM): 153.6 and 157.6 and 123.4 and 129.5
Proliferation of Pa16C cells expressing MEK1 mutant constructs ([7]; MEK1K57N, inhibitor 3.704 nM): 116.2 and 140.9 and 100.4 and 107.4
Proliferation of Pa16C cells expressing MEK1 mutant constructs ([7]; MEK1K57N, inhibitor 11.111 nM): 83.1 and 119.2 and 75.2 and 67
Proliferation of Pa16C cells expressing MEK1 mutant constructs ([7]; MEK1Q56P, inhibitor 0.046 nM): 136.2 and 107 and 127.7 and 113.2
Proliferation of Pa16C cells expressing MEK1 mutant constructs ([7]; MEK1Q56P, inhibitor 0.412 nM): 178.1 and 122.6 and 149.9 and 115.3
Proliferation of Pa16C cells expressing MEK1 mutant constructs ([7]; MEK1Q56P, inhibitor 1.235 nM): 166.6 and 134 and 125.8 and 104.6
Proliferation of Pa16C cells expressing MEK1 mutant constructs ([7]; MEK1Q56P, inhibitor 3.704 nM): 131.2 and 128.6 and 108.4 and 83.5
Proliferation of Pa16C cells expressing MEK1 mutant constructs ([7]; MEK1S218D/S222D, inhibitor 0.046 nM): 105.3 and 97.5 and 108.4 and 102.6
Proliferation of Pa16C cells expressing MEK1 mutant constructs ([7]; MEK1S218D/S222D, inhibitor 0.412 nM): 90.3 and 97.7 and 107.5 and 108.3
Proliferation of Pa16C cells expressing MEK1 mutant constructs ([7]; MEK1S218D/S222D, inhibitor 1.235 nM): 59.2 and 93.4 and 100.5 and 90.2
Proliferation of Pa16C cells expressing MEK1 mutant constructs ([7]; MEK1WT, inhibitor 0.046 nM): 113.6 and 107.4 and 114.6 and 111.6
Proliferation of Pa16C cells expressing MEK1 mutant constructs ([7]; MEK1WT, inhibitor 0.412 nM): 127.4 and 95.8 and 106.8 and 108.8
Proliferation of Pa16C cells expressing MEK1 mutant constructs ([7]; MEK1WT, inhibitor 1.235 nM): 95.9 and 89.3 and 90.3 and 82.4
Proliferation of Pa16C cells expressing MEK1 mutant constructs ([7]; MEK1WT, inhibitor 3.704 nM): 49.4 and 66.6 and 61 and 49.7
Proliferation of Pa16C cells expressing MEK1 mutant constructs ([7]; MEK1WT, inhibitor 11.111 nM): 29.9 and 38 and 33.3 and 24.2

Structure (SMILES): O=C(c1ccc(F)c(F)c1Nc1ccc(I)cc1F)N1CC(O)([C@@H]2CCCCN2)C1 [cobimetinib]
anti-tumour activity [6]: only modest tumour growth inhibition

Structure (SMILES): CC(=O)Nc1cccc(-n2c(=O)n(C3CC3)c(=O)c3c(Nc4ccc(I)cc4F)n(C)c(=O)c(C)c32)c1 [trametinib, reference compound]
effect of disruption of the PPIA locus on sensitivity ([8]; AsPC-1 and NCI-H441, pERK and proliferation): did not affect sensitivity
activity at 16.9 pM ([8]; Homo sapiens, ASPC1, AsPC-1, […], read-out: pERK inhibition in PPIA KO cells treated with trametinib): 106%
activity at 0.00046 µM ([8]; Homo sapiens, ASPC1, AsPC-1 PPIA KO, read-out: pERK inhibition in PPIA KO cells treated with trametinib): 47%
activity at 0.00412 µM ([8]; Homo sapiens, ASPC1, AsPC-1 PPIA KO, 4.12 nM, read-out: Proliferation inhibition in PPIA KO cells treated with trametinib): 25.5%
activity at 0.037 µM ([8]; Homo sapiens, ASPC1, AsPC-1 PPIA KO, 37.00 nM, read-out: Proliferation inhibition in PPIA KO cells treated with trametinib): 9.16%
activity at 0.333 µM ([8]; Homo sapiens, ASPC1, AsPC-1 PPIA KO, 333.00 nM, read-out: Proliferation inhibition in PPIA KO cells treated with trametinib): 4.83%
activity at 50 pM ([8]; Homo sapiens, NCI-H441, NCI-H441, 0.05 nM, read-out: Proliferation inhibition in PPIA KO cells treated with trametinib): 120%
activity at 0.00412 µM ([8]; Homo sapiens, NCI-H441, NCI-H441, 4.12 nM, read-out: Proliferation inhibition in PPIA KO cells treated with trametinib): 49.5%
activity at 0.037 µM ([8]; Homo sapiens, NCI-H441, NCI-H441, 37.00 nM, read-out: Proliferation inhibition in PPIA KO cells treated with trametinib): 44.6%
activity at 0.333 µM ([8]; Homo sapiens, NCI-H441, NCI-H441, 333.00 nM, read-out: Proliferation inhibition in PPIA KO cells treated with trametinib): 42.2%
activity at 1 µM ([8]; Homo sapiens, NCI-H441, NCI-H441, 1000.00 nM, read-out: Proliferation inhibition in PPIA KO cells treated with trametinib): 35.6%
activity at 0.00046 µM ([8]; Homo sapiens, NCI-H441, NCI-H441 PPIA KO, read-out: pERK inhibition in PPIA KO cells treated with trametinib): 59%
activity at 0.00412 µM ([8]; Homo sapiens, NCI-H441, NCI-H441 PPIA KO, 4.12 nM, read-out: Proliferation inhibition in PPIA KO cells treated with trametinib): 47%
activity at 0.037 µM ([8]; Homo sapiens, NCI-H441, NCI-H441 PPIA KO, 37.00 nM, read-out: Proliferation inhibition in PPIA KO cells treated with trametinib): 40.9%
activity at 0.333 µM ([8]; Homo sapiens, NCI-H441, NCI-H441 PPIA KO, 333.00 nM, read-out: Proliferation inhibition in PPIA KO cells treated with trametinib): 37.7%
activity at 1 µM ([8]; Homo sapiens, NCI-H441, NCI-H441 PPIA KO, 1000.00 nM, read-out: Proliferation inhibition in PPIA KO cells treated with trametinib): 28.5%
pERK suppression in RAS-less MEFs (RAS-less MEFs): reduced pERK similarly in all cells
